Source: patent publication US11497752B2, “Compounds and uses thereof” (Foghorn Therapeutics Inc., priority 2018, dated 2022)

What was measured:
BRM = BRM (Homo sapiens, UniProt P51531); assay: ATPase catalytic activity of BRM (ADP-Glo in vitro biochemical assay); conditions: for BRM Max % Inhibition: Table 5
BRG-1 = BRG-1 (Homo sapiens, UniProt P51532); assay: ATPase catalytic activity of BRG-1 (ADP-Glo in vitro biochemical assay); conditions: for BRG1 Max % Inhibition: Table 5
BRG-1, sequence (P51532 whole entry): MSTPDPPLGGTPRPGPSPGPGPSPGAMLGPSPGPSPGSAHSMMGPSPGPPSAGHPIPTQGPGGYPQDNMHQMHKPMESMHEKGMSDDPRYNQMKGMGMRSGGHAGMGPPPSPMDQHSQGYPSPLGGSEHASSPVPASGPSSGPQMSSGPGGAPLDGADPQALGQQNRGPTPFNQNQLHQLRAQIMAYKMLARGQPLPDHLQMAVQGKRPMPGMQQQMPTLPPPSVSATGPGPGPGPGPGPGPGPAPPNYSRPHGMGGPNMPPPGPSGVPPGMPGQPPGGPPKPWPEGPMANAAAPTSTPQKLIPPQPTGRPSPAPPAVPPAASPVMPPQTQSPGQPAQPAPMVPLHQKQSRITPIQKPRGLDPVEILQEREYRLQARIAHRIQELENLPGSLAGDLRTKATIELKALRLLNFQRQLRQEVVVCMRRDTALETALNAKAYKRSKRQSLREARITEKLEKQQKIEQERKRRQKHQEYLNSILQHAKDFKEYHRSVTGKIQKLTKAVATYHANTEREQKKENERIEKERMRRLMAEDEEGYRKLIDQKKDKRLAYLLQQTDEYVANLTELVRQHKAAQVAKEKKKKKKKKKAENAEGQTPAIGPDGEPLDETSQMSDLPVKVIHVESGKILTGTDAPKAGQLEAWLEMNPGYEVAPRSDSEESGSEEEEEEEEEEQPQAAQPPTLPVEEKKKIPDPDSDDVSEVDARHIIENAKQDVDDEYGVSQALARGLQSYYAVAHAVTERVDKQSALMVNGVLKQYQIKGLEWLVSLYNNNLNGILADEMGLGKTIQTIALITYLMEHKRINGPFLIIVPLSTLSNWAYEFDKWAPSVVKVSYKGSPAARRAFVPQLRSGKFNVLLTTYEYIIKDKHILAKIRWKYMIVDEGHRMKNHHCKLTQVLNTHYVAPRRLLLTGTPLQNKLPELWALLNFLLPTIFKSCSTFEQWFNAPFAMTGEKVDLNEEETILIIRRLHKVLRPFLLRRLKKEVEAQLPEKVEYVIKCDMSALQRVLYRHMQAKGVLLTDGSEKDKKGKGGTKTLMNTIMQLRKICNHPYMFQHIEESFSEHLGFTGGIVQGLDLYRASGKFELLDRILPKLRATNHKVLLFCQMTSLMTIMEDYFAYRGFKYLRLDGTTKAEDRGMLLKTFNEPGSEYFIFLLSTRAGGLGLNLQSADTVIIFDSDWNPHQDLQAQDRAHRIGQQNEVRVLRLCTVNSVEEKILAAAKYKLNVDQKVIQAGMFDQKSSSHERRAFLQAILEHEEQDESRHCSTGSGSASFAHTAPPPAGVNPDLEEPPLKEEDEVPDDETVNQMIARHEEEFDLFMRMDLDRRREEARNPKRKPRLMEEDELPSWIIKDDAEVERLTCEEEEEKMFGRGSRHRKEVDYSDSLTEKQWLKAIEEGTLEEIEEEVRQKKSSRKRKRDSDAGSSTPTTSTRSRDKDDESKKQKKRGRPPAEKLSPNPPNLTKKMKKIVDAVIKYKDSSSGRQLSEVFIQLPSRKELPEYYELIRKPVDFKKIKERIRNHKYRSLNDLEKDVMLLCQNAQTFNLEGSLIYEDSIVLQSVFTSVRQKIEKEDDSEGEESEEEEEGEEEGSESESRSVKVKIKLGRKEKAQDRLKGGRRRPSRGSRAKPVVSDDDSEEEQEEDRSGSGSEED

BRM, sequence (P51531 whole entry): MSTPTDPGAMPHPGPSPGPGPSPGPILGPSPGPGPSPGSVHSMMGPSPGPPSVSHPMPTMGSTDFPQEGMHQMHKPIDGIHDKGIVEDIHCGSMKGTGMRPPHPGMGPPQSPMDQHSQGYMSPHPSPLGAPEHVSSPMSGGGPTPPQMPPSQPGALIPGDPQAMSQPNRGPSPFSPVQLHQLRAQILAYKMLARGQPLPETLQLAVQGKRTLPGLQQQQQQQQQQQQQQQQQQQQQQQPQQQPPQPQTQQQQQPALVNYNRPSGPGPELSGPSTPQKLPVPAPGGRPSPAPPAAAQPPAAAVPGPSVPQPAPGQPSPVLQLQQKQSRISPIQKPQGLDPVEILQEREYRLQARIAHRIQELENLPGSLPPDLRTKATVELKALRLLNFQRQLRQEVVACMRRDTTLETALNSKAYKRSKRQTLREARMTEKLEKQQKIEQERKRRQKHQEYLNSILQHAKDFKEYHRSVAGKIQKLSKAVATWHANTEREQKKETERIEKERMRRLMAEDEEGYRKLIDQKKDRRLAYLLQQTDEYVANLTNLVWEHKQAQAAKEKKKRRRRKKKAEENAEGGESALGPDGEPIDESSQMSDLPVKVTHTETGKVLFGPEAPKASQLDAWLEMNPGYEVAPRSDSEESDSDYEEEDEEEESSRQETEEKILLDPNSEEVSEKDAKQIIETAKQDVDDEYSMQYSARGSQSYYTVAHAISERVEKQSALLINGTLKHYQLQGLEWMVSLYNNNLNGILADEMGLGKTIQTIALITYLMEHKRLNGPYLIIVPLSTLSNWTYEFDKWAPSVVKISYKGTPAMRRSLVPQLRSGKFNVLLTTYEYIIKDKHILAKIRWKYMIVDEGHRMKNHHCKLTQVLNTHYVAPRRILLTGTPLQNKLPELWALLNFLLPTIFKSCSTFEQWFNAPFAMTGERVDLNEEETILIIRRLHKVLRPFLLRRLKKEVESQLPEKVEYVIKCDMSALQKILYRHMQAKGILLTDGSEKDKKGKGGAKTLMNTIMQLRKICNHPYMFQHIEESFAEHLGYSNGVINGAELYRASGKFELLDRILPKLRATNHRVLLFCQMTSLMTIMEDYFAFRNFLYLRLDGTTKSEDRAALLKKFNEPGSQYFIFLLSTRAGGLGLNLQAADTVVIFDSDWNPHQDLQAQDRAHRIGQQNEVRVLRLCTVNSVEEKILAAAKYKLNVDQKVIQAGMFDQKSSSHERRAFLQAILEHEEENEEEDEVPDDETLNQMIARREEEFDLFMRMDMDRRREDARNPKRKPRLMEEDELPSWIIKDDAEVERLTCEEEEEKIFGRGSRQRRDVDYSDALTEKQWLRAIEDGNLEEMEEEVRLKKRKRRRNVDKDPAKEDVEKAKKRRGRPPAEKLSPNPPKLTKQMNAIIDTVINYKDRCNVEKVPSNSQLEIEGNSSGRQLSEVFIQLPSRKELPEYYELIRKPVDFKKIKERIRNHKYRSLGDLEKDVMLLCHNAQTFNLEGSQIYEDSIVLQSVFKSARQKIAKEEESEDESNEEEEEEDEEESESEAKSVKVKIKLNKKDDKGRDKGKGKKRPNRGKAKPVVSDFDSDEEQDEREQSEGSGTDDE

Row | Compound | IC50 (BRM) [µM] | BRM Max % Inhibition (BRM) [%] | IC50 (BRG-1) [µM] | BRG1 Max % Inhibition (BRG-1) [%]
1 | CN(C)S(=O)(=O)c1cccc(C(=O)N[C@@H](CN)C(=O)Nc2nc(-c3ccccc3)cs2)c1 [Compound 25, (S)—N-(3-amino-1-oxo-1-((4-phenylthiazol-2-yl)amino)propan-2-yl)-3-(N,N-dimethylsulfamoyl)benzamide] | > 10 | >70 | > 10 | >50
2 | CNS(=O)(=O)c1cccc(C(=O)NCC(=O)Nc2nc(-c3ccccc3)cs2)c1 [Compound 26, 3-(methylsulfamoyl)-N-[2-oxo-2-[(4-phenylthiazol-2-yl)amino]ethyl]benzamide] | > 10 | >60 | > 10 | <30
3 | CN(C)S(=O)(=O)c1cccc(C(=O)NCC(=O)Nc2nc(-c3ccccc3C#N)cs2)c1 [Compound 27, N-(2-((4-(2-cyanophenyl)thiazol-2-yl)amino)-2-oxoethyl)-3-(N,N-dimethylsulfamoyl)benzamide] | > 10 | >60 | > 10 | >30
4 | NS(=O)(=O)c1cccc(C(=O)NCC(=O)Nc2nc(-c3ccccc3)cs2)c1 [Compound 28, N-(2-oxo-2-((4-phenylthiazol-2-yl)amino)ethyl)-3-sulfamoylbenzamide] | 1 to 10 | >50 | 1 to 10 | >30
5 | Cc1cccc(C)c1-c1csc(NC(=O)CNC(=O)c2cccc(S(=O)(=O)N(C)C)c2)n1 [Compound 29, N-[2-[[4-(2,6-dimethylphenyl)thiazol-2-yl]amino]-2-oxo-ethyl]-3-(dimethylsulfamoyl)benzamide] | > 10 | >50 | > 10 | >60
6 | Cc1ccc(-c2csc(NC(=O)CNC(=O)c3cccc(S(=O)(=O)N(C)C)c3)n2)cc1 [Compound 31, 3-(dimethylsulfamoyl)-N-[2-oxo-2-[[4-(p-tolyl)thiazol-2-yl]amino]ethyl]benzamide] | 1 to 10 | >30 | 1 to 10 | <30
7 | CN(C)S(=O)(=O)c1cccc(C(=O)NCC(=O)Nc2nc(-c3ccccn3)cs2)c1 [Compound 32, 3-(dimethylsulfamoyl)-N-[2-oxo-2-[[4-(2-pyridyl)thiazol-2-yl]amino]ethyl]benzamide] | > 10 | >30 | > 10 | <30
8 | CN(C)S(=O)(=O)c1cccc(C(=O)NCC(=O)Nc2nc(-c3cccc(C(=O)O)c3)cs2)c1 [Compound 33, 3-[2-[[2-[[3-(dimethylsulfamoyl)benzoyl]amino]acetyl]amino]thiazol-4-yl]benzoic acid] | > 10 | >80 | > 10 | >80
9 | CN(C)S(=O)(=O)c1cccc(C(=O)NCC(=O)Nc2nc(C3CCCCC3)cs2)c1 [Compound 34, N-[2-[(4-cyclohexylthiazol-2-yl)amino]-2-oxo-ethyl]-3-(dimethylsulfamoyl)benzamide] | > 10 | >90 | > 10 | >60
10 | CC(C)c1csc(NC(=O)CNC(=O)c2cccc(S(=O)(=O)N(C)C)c2)n1 [Compound 35, 3-(dimethylsulfamoyl)-N-[2-[(4-isopropylthiazol-2-yl)amino]-2-oxoethyl]benzamide] | > 10 | >95 | > 10 | >90
11 | CS(=O)(=O)c1cccc(C(=O)NCC(=O)Nc2nc(-c3cccc(-c4ccccc4)c3)cs2)c1 [Compound 36, 3-methylsulfonyl-N-[2-oxo-2-[[4-(3-phenylphenyl)thiazol-2-yl]amino]ethyl]benzamide] | < 1 | >95 | 1 to 10 | >90
12 | CN(C)C(=O)c1cccc(-c2csc(NC(=O)CNC(=O)c3cccc(S(=O)(=O)N(C)C)c3)n2)c1 [Compound 37, 3-[2-[[2-[[3-(dimethylsulfamoyl)benzoyl]amino]acetyl]amino]thiazol-4-yl]-N,N-dimethyl-benzamide] | > 10 | >50 | > 10 | >30
13 | CSCC[C@H](NC(=O)c1ccc(NS(C)(=O)=O)cc1)C(=O)Nc1nc(-c2ccccc2)cs1 [Compound 38, 4-(methanesulfonamido)-N-[(1S)-3-methylsulfanyl-1-[(4-phenylthiazol-2-yl)carbamoyl]propyl]benzamide] | > 10 | >80 | > 10 | >80
14 | O=C(CNC(=O)c1cccc(S(=O)(=O)C2CC2)c1)Nc1nc(-c2ccccc2)cs1 [Compound 39, 3-cyclopropylsulfonyl-N-[2-oxo-2-[(4-phenylthiazol-2-yl)amino]ethyl]benzamide] | > 10 | >30 | > 10 | <30
15 | CN(C)S(=O)(=O)c1cccc(C(=O)NCC(=O)Nc2cccc(-c3ccccc3)c2)c1 [Compound 40, 3-(dimethylsulfamoyl)-N-[2-oxo-2-(3-phenylanilino)ethyl]benzamide] | – | >50 | – | <30
16 | CC(C)CC[C@H](NC(=O)c1ccccc1)C(=O)Nc1nc(-c2ccccc2)cs1 [Compound 46, N-[(1S)-4-methyl-1-[(4-phenylthiazol-2-yl)carbamoyl]pentyl]benzamide] | 1 to 10 | – | 1 to 10 | –
17 | O=C(N[C@@H](CCc1ccccc1)C(=O)Nc1nc(-c2ccccc2)cs1)c1ccccc1 [Compound 49, N-[(1S)-3-phenyl-1-[(4-phenylthiazol-2-yl)carbamoyl]propyl]benzamide] | 1 to 10 | – | 1 to 10 | –
18 | CCC[C@H](NC(=O)c1ccccc1)C(=O)Nc1nc(-c2ccccc2)cs1 [Compound 51, N-[(1S)-1-[(4-phenylthiazol-2-yl)carbamoyl]butyl]benzamide] | 1 to 10 | – | > 10 | –
19 | CSCC[C@H](NC(=O)c1ccc(O)cc1)C(=O)Nc1nc(-c2ccccc2)cs1 [Compound 53, 4-hydroxy-N-[(1S)-3-methylsulfanyl-1-[(4-phenylthiazol-2-yl)carbamoyl]propyl]benzamide] | 1 to 10 | – | 1 to 10 | –
20 | CSCC[C@H](NC(=O)c1cccc(C(C)(C)O)c1)C(=O)Nc1nc(-c2ccccc2)cs1 [Compound 55, (S)-3-(2-hydroxypropan-2-yl)-N-(4-(methylthio)-1-oxo-1-((4-phenylthiazol-2-yl)amino)butan-2-yl)benzamide] | 1 to 10 | >90 | 1 to 10 | >80
21 | CSCC[C@H](NC(=O)c1ccc(CN)cc1)C(=O)Nc1nc(-c2ccccc2)cs1 [Compound 57, 4-(aminomethyl)-N-[3-methylsulfanyl-1-[(4-phenylthiazol-2-yl)carbamoyl]propyl]benzamide] | > 10 | >90 | > 10 | >90
22 | CSCC[C@H](NC(=O)c1cccc(O)c1)C(=O)Nc1nc(-c2ccccc2)cs1 [Compound 59, (S)-3-hydroxy-N-(4-(methylthio)-1-oxo-1-((4-phenylthiazol-2-yl)amino)butan-2-yl)benzamide] | > 10 | >90 | > 10 | >90
23 | CSCC[C@H](NC(=O)c1ccc(CN(C)C)cc1)C(=O)Nc1nc(-c2ccccc2)cs1 [Compound 60, 4-[(dimethylamino)methyl]-N-[(1S)-3-methylsulfanyl-1-[(4-phenylthiazol-2-yl)carbamoyl]propyl]benzamide] | > 10 | >90 | > 10 | >80
24 | CC(C)(O)c1cccc(C(=O)NCC(=O)Nc2nc(-c3ccccc3)cs2)c1 [Compound 61, 3-(2-hydroxypropan-2-yl)-N-(2-oxo-2-((4-phenylthiazol-2-yl)amino)ethyl)benzamide] | 1 to 10 | >80 | 1 to 10 | >50
25 | CSCC[C@H](NC(=O)c1ccc(S(=O)(=O)N(C)C)s1)C(=O)Nc1nc(-c2ccccc2)cs1 [Compound 62, 5-(dimethylsulfamoyl)-N-[(1S)-3-methylsulfanyl-1-[(4-phenylthiazol-2-yl)carbamoyl]propyl]thiophene-2-carboxamide] | 1 to 10 | >80 | 1 to 10 | >70
26 | CSCC[C@H](NC(=O)c1cc(S(=O)(=O)N(C)C)cs1)C(=O)Nc1nc(-c2ccccc2)cs1 [Compound 64, 4-(dimethylsulfamoyl)-N-[(1S)-3-methylsulfanyl-1-[(4-phenylthiazol-2-yl)carbamoyl]propyl]thiophene-2-carboxamide] | 1 to 10 | >70 | 1 to 10 | >60
27 | CC(C)(C)c1cccc(C(=O)NCC(=O)Nc2nc(-c3ccccc3)cs2)c1 [Compound 65, 3-(tert-butyl)-N-(2-oxo-2-((4-phenylthiazol-2-yl)amino)ethyl)benzamide] | 1 to 10 | >70 | 1 to 10 | >30
28 | CSCC[C@H](NC(=O)c1ccc2[nH]cnc2c1)C(=O)Nc1nc(-c2ccccc2)cs1 [Compound 66, (S)—N-(4-(methylthio)-1-oxo-1-((4-phenylthiazol-2-yl)amino)butan-2-yl)-1H-benzo[d]imidazole-5-carboxamide] | > 10 | >70 | > 10 | >50
29 | COc1ccc(C(=O)N[C@@H](CCSC)C(=O)Nc2nc(-c3ccccc3)cs2)cc1 [Compound 67, 4-methoxy-N-[(1S)-3-methylsulfanyl-1-[(4-phenylthiazol-2-yl)carbamoyl]propyl]benzamide] | > 10 | >70 | > 10 | >70
